Test: relative permittivity at zero frequency (dimensionless); xn = mol fraction of the nth substance listed
Details: 100 kPa, Liquid, Dielectrometer

CC(C)CO [2-methyl-1-propanol] + CCCCO
relative permittivity at zero frequency
Details	288.15 K	293.15 K	298.15 K	303.15 K	308.15 K
x1 = 0.0505	19.03	18.3	17.59	16.92	16.26
x1 = 0.1011	19.05	18.31	17.61	16.93	16.27
x1 = 0.1496	19.06	18.33	17.62	16.94	16.28
x1 = 0.2001	19.08	18.34	17.63	16.95	16.29
x1 = 0.2488	19.1	18.36	17.65	16.97	16.31
x1 = 0.3011	19.12	18.38	17.66	16.98	16.32
x1 = 0.3497	19.14	18.4	17.68	16.99	16.33
x1 = 0.399	19.16	18.41	17.7	17.01	16.34
x1 = 0.4511	19.18	18.43	17.71	17.02	16.36
x1 = 0.5021	19.21	18.44	17.73	17.04	16.37
x1 = 0.5489	19.23	18.46	17.75	17.06	16.39
x1 = 0.6004	19.26	18.5	17.77	17.07	16.4
x1 = 0.6488	19.28	18.52	17.79	17.09	16.42
x1 = 0.6975	19.31	18.55	17.81	17.11	16.43
x1 = 0.751	19.34	18.57	17.83	17.13	16.45
x1 = 0.8004	19.37	18.6	17.86	17.15	16.46
x1 = 0.848	19.4	18.62	17.88	17.17	16.48
x1 = 0.8995	19.43	18.65	17.9	17.19	16.5
x1 = 0.9506	19.47	18.68	17.93	17.21	16.52
x1 = 1	19.51	18.71	17.96	17.23	16.53

— the NIST ThermoML archive (doi:10.1021/je3007666)
